Laboratory results taken from US11174251B2, “Compositions and methods for inhibition of the JAK pathway” (Rigel Pharmaceuticals, Inc., priority 2010, dated 2021).
Structures can show the parent of a compound that is named as a salt.

Target: T1, JAK3 (Homo sapiens, UniProt P52333)
T1 construct: The Ramos B-cell line was acquired from ATCC (ATCC Catalog No. CRL-1596); host or cells: Ramos B-cell line (human)
T1 sequence (P52333 1-1124): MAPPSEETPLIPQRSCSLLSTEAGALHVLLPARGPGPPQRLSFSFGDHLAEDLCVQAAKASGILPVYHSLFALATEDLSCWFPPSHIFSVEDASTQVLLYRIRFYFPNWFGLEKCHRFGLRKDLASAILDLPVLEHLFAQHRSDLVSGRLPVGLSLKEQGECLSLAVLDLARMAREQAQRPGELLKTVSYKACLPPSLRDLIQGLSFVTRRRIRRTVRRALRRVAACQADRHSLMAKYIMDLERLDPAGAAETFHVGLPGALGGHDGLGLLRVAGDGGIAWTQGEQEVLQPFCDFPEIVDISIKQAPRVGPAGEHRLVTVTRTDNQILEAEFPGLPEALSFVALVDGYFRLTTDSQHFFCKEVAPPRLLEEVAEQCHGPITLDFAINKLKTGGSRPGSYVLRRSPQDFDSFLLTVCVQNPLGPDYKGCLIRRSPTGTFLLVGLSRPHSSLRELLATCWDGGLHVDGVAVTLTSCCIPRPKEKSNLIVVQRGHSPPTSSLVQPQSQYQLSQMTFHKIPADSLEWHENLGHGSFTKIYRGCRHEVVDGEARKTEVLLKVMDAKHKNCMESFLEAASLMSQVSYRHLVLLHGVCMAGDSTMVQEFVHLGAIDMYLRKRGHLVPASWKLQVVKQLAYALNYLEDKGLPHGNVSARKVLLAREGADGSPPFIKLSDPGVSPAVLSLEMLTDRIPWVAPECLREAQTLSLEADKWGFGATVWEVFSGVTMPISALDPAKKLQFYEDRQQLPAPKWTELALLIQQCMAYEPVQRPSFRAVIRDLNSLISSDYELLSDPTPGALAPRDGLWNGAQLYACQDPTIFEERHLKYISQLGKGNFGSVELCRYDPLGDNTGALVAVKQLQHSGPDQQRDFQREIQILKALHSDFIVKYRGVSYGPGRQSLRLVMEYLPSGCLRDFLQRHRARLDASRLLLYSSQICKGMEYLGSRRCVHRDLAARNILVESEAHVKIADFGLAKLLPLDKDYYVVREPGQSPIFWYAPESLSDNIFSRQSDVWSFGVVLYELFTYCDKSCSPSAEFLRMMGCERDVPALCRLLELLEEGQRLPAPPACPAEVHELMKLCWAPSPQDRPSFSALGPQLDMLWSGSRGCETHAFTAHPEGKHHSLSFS
Assay: Assay for CD23 expression on Ramos B-cells stimulated by IL-4 (Table IV: ability to inhibit JAK3 activity)
Type: cell-based
Conditions: tested under conditions described in Example 3 (so in the source)
In short: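 Human Ramos B cells in RPMI with 5% serum, pre-incubated 1 h at 37 °C with compound or DMSO, then stimulated with IL-4 (final 50 units/mL) for 20–24 h. Surface CD23 upregulation measured by FACS staining as readout of JAK1/JAK3–Stat-6 signalling.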

`O=C1NCC=Cc2cc(Nc3ncc(F)c(Nc4ccc5oc(=O)[nH]c5c4)n3)ccc21` [II-23, 5-(5-fluoro-2-(1-oxo-2,3-dihydro-1H-benzo[c]azepin-7-ylamino)pyrimidin-4-ylamino)benzo[d]oxazol-2(3H)-one formate salt] was tested, and the IC50 was < 500 nM.
`COCCOc1c(C)ccc(Nc2ncc(F)c(Nc3ccc4oc(=O)[nH]c4c3)n2)c1F` [Compound I-61, 5-(5-fluoro-2-(2-fluoro-3-(2-methoxyethoxy)-4-methylphenylamino)pyrimidin-4-ylamino)benzo[d]oxazol-2(3H)-one trifluoroacetate salt] was tested, and the IC50 was < 500 nM.
In the case of `COc1ccc(Nc2ncc(Cl)c(Nc3ccc4oc(=O)[nH]c4c3)n2)c(F)c1` [Compound I-76, 5-(5-chloro-2-(2-fluoro-4-methoxyphenylamino)pyrimidin-4-ylamino)benzo[d]oxazol-2(3H)-one trifluoroacetate salt], the IC50 is reported as < 500 nM.
For `COc1cc(Nc2ncc(F)c(Nc3cc(C)c4oc(=O)[nH]c4c3)n2)cc(C(F)(F)F)c1` [Compound I-176, 5-(2-(3-(trifluoromethyl)-5-methoxyphenylamino)-5-fluoropyrimidin-4-ylamino)-7-methylbenzo[d]oxazol-2(3H)-one trifluoroacetate salt], the IC50 was > 10000 nM.
With `COc1cc(Nc2ncc(C)c(Nc3ccc4oc(=O)n(C)c4c3)n2)cc(C)c1C` [Compound I-125, 5-(2-(3-methoxy-4,5-dimethylphenylamino)-5-methylpyrimidin-4-ylamino)-3-methylbenzo[d]oxazol-2(3H)-one trifluoroacetate salt] the IC50 was < 500 nM.
With `COc1ccc(Nc2ncc(F)c(Nc3ccc4oc(=O)[nH]c4c3)n2)cc1-c1cccnc1` [Compound I-209, 5-(2-(4-methoxy-3-(pyridin-3-yl)phenylamino)-5-fluoropyrimidin-4-ylamino)benzo[d]oxazol-2(3H)-one formate salt] the IC50 was < 500 nM.
`O=c1[nH]c2cc(Nc3ccnc(Nc4cc(F)cc(F)c4)n3)ccc2o1` [Compound I-13, 5-(2-(3,5-difluorophenylamino)pyrimidin-4-ylamino)benzo[d]oxazol-2(3H)-one trifluoroacetate salt] was tested, and the IC50 was 500 to 5000 nM.
For `Cc1cc(Nc2ncc(CN3CCCCC3)c(Nc3ccc4oc(=O)[nH]c4c3)n2)cc(C)c1C` [Compound I-99, 5-(2-(3,4,5-trimethylphenylamino)-5-((piperidin-1-yl)methyl)pyrimidin-4-ylamino)benzo[d]oxazol-2(3H)-one], the IC50 was > 10000 nM.
In the case of `COc1cc(Nc2ncc(F)c(Nc3ccc4oc(=O)[nH]c4c3)n2)cc(F)c1C` [Compound I-121, 5-(5-fluoro-2-(3-fluoro-5-methoxy-4-methylphenylamino)pyrimidin-4-ylamino)benzo[d]oxazol-2(3H)-one trifluoroacetate salt], the IC50 is reported as < 500 nM.
With `COC(=O)c1cnc(Nc2ccc3ccccc3c2)nc1Nc1ccc2oc(=O)[nH]c2c1` [II-7, 2-(Naphthalen-2-ylamino)-4-(2-oxo-2,3-dihydro-benzooxazol-5-ylamino)-pyrimidine-5-carboxylic acid methyl ester trifluoroacetate salt] the IC50 was > 10000 nM.
With `O=c1[nH]c2cc(Nc3nc(Nc4cc(F)cc(Cl)c4)ncc3Cl)ccc2o1` [Compound I-8, 5-(5-chloro-2-(3-chloro-5-fluorophenylamino)pyrimidin-4-ylamino)benzo[d]oxazol-2(3H)-one formate salt] the IC50 was < 500 nM.
In the case of `COc1ccc(Nc2ncc(C)c(Nc3ccc4oc(=O)[nH]c4c3)n2)c(F)c1OC` [Compound I-50, 5-[2-(2-Fluoro-3,4-dimethoxy-phenylamino)-5-methyl-pyrimidin-4-ylamino]-3H-benzooxazol-2-one], the IC50 is reported as < 500 nM.
For `Cc1cnc(Nc2ncc(C)c(Nc3ccc4oc(=O)[nH]c4c3)n2)cc1C` [II-14, N2-(4,5-dimethylpyridin-2-yl)-5-methyl-N4-(2-oxo-2,3-dihydro-1,3-benzoxazol-5-yl)-2,4-pyrimidinediamine], the IC50 was > 10000 nM.
In the case of `O=C1COc2cc(Nc3ncc(F)c(Nc4ccc5oc(=O)[nH]c5c4)n3)ccc2N1` [II-25, 7-(4-(2,3-dihydro-2-oxobenzo[d]oxazol-5-ylamino)-5-fluoropyrimidin-2-ylamino)-2H-benzo[b][1,4]oxazin-3(4H)-one formate salt], the IC50 is reported as < 500 nM.
`COc1cc(Nc2ncc(F)c(Nc3cc(F)c4oc(=O)[nH]c4c3)n2)cc(C)c1F` [Compound I-191, 5-(2-(4-fluoro-3-methoxy-5-methylphenylamino)-5-fluoropyrimidin-4-ylamino)-7-fluorobenzo[d]oxazol-2(3H)-one trifluoroacetate salt] was tested, and the IC50 was < 500 nM.
`Cc1cnc(Nc2cc(C)c(F)c(CO)c2)nc1Nc1ccc2oc(=O)[nH]c2c1` [Compound I-154, N2-(4-fluoro-3-hydroxymethyl-5-methyl)phenyl-5-methyl-N4-(2-oxo-2,3-dihydro-1,3-benzoxazol-5-yl)-2,4-pyrimidinediamine] was tested, and the IC50 was < 500 nM.
With `Cc1cc(Nc2nc(Nc3cccc(S(N)(=O)=O)c3)ncc2F)cc2[nH]c(=O)oc12` [Compound I-171, 3-(5-fluoro-4-(7-methyl-2-oxo-2,3-dihydrobenzo[d]oxazol-5-ylamino)pyrimidin-2-ylamino)benzenesulfonamide trifluoroacetate salt] the IC50 was < 500 nM.
`COCCOc1c(C)ccc(Nc2ncc(C)c(Nc3ccc4oc(=O)[nH]c4c3)n2)c1F` [Compound I-53, 5-{2-[2-Fluoro-3-(2-methoxy-ethoxy)-4-methyl-phenylamino]-5-methyl-pyrimidin-4-ylamino}-3H-benzooxazol-2-one] was tested, and the IC50 was < 500 nM.
With `CCOC(=O)c1c(C)cc(Nc2ncc(C)c(Nc3ccc4oc(=O)[nH]c4c3)n2)cc1OC` [Compound I-128, ethyl 4-(4-(2,3-dihydro-2-oxobenzo[d]oxazol-5-ylamino)-5-methylpyrimidin-2-ylamino)-2-methoxy-6-methylbenzoate] the IC50 was < 500 nM.
With `Cc1cnc(Nc2ccc(Br)cc2F)nc1Nc1ccc2oc(=O)[nH]c2c1` [Compound I-28, 5-[2-(4-Bromo-2-fluoro-phenylamino)-5-methyl-pyrimidin-4-ylamino]-3H-benzooxazol-2-one] the IC50 was < 500 nM.
For `COc1cc(Nc2ncc(F)c(Nc3ccc4oc(=O)[nH]c4c3)n2)cc(C)c1C` [Compound I-195, 5-(2-(3-methoxy-4,5-dimethylphenylamino)-5-fluoropyrimidin-4-ylamino)benzo[d]oxazol-2(3H)-one trifluoroacetate salt], the IC50 was < 500 nM.
For `Cc1cnc(Nc2ccc(C)c3c2COC3=O)nc1Nc1ccc2oc(=O)[nH]c2c1` [II-12, 5-methyl-N4-(2-oxo-2,3-dihydro-1,3-benzoxazol-5-yl)-N2-(1-oxo-1,3-dihydro-7-methylisobenzofuran-4-yl)-2,4-pyrimidinediamine], the IC50 was < 500 nM.
`CN1C(=O)CCCc2cc(Nc3ncc(F)c(Nc4ccc5oc(=O)[nH]c5c4)n3)ccc21` [II-28, 7-(4-(2,3-dihydro-2-oxobenzo[d]oxazol-5-ylamino)-5-fluoropyrimidin-2-ylamino)-4,5-dihydro-1-methyl-1H-benzo[b]azepin-2(3H)-one trifluoroacetate salt] was tested, and the IC50 was < 500 nM.
With `COC(=O)c1cc(Nc2ncc(C)c(Nc3ccc4oc(=O)[nH]c4c3)n2)cc(C)c1F` [Compound I-153, N2-(4-fluoro-3-methoxycarbonyl-5-methyl)phenyl-5-methyl-N4-(2-oxo-2,3-dihydro-1,3-benzoxazol-5-yl)-2,4-pyrimidinediamine] the IC50 was < 500 nM.
`COc1cc(Nc2ncc(C)c(Nc3ccc4oc(=O)n(COP(=O)(O)O)c4c3)n2)cc(C)c1C` [Compound I-115, Disodium (5-(2-(3-methoxy-4,5-dimethylphenylamino)-5-methylpyrimidin-4-ylamino)-2-oxobenzo[d]oxazol-3(2H)-yl)methyl phosphate] gave an IC50 of 500 to 5000 nM.
For `Cc1cc(Nc2ncc(F)c(Nc3ccc4oc(=O)[nH]c4c3)n2)cc(C)c1F` [Compound I-215, N2-(3,5-dimethyl-4-fluoro)phenyl-5-fluoro-N4-(2-oxo-2,3-dihydro-1,3-benzoxazol-5-yl)-2,4-pyrimidinediamine], the IC50 was < 500 nM.
With `COC(=O)c1c(C)cc(Nc2ncc(C)c(Nc3ccc4oc(=O)[nH]c4c3)n2)cc1C` [Compound I-138, N2-(3,5-dimethyl-4-methoxycarbonyl)phenyl-5-methyl-N4-(2-oxo-2,3-dihydro-1,3-benzoxazol-5-yl)-2,4-pyrimidinediamine] the IC50 was < 500 nM.
